pIC50: −log10 of the molar value.
Key:
KDM7 (PHF8) = target: T1, KDM7 (PHF8) (Homo sapiens, UniProt Q9UPP1); experiment: Histone lysine demethylase AlphaLISA assay, KDM7; format: biochemical; details: read-out: PHF8 HDME Inhibition IC50
T1 construct: KDM7 (PHF8); BRIC; 1-1322; Bac
Method: Assays are performed analogously to the protocol described by PerkinElmer (Roy et al. PerkinElmer Technical Note: AlphaLISA #12, April 2011)
Enzymes are dissolved in enzyme buffer and incubated for 10 min before being added to 3% DMSO solutions of compounds in enzyme buffer. Incubated for another 10 minutes, before substrate solution is added and the reaction mixture is incubated at room temperature. 10 μL acceptor beads, suspended in Epigenetic Buffer (Perkin Elmer AL008) from stock, are added and the suspension is incubated in the dark at room temperature, before a suspension of streptavidin donor beads (Perkin Elmer 6760002) in Epigenetic Buffer is added. After incubation at room temperature in the dark the plates are read. […]
BK9M2: Biotin-ARTKQTAR(KMe2)STGGKAPRKQ-NH2 (AnaSpec 64359)
BK9M1: Biotin-ARTKQTAR(KMe1)STGGKAPRKQ-NH2 (AnaSpec 64358) […]
Substrate Solution: Substrate, 25 μM L-Asc, and 10 μM α-KG in Buffer A.

KDM4C = target: T2, KDM4C (Homo sapiens, UniProt Q9H3R0); experiment: Histone lysine demethylase immunofluorescence assay, U2OS cells transfected with KDM4C; format: cell-based; details: U2OS cells transfected with pCMVHA KDM4C; mark detected H3K9me3; 20 hours
T2 construct: Full length; host or cells: U2OS
T2 sequence (Q9H3R0 1-1056): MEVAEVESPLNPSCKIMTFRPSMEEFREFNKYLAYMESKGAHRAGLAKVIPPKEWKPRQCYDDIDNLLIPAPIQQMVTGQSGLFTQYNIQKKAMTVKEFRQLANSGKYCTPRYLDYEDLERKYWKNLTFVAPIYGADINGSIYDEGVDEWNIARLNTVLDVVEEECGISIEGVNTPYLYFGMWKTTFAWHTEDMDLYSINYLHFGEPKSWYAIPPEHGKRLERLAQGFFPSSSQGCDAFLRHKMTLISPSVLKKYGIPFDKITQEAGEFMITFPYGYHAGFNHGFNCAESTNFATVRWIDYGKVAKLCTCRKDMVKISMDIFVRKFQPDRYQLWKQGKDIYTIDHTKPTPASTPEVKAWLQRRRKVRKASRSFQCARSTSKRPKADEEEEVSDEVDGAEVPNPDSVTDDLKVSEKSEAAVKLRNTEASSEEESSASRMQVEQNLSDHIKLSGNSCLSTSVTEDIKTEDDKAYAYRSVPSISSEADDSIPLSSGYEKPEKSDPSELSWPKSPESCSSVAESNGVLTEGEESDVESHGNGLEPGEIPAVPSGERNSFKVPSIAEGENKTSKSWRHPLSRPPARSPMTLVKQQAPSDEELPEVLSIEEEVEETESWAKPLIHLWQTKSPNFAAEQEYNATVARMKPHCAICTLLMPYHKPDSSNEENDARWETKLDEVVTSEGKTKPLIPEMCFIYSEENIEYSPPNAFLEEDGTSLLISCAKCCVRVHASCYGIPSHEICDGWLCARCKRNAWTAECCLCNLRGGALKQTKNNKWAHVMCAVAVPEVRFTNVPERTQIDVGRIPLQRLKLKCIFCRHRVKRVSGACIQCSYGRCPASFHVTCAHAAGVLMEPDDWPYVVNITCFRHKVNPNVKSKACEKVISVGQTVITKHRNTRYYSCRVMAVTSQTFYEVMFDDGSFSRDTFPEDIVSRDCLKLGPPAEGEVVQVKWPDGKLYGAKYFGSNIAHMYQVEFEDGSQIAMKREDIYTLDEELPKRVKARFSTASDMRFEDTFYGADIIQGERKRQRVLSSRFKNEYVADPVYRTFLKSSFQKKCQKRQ
Method: U2OS cells were seeded 24 hours before transfection. Transfection was performed with Fugene HD transfection reagent as recommended by the manufacturer. 6 hours after transfection, the cells were harvested and seeded into multi well plates into media containing compound. The media used was DMEM containing 10% FBS and pen/strep. 20 hours after incubation of cells with compounds, the cells were washed in PBS, harvested by fixation with formaldehyde 4% aqueous solution, and washed in PBS. Subsequently, the cells were permeabilized in PBS with 0.2% Triton X-100 for. Blocking was performed in PBS with 0.2% Triton X-100 and 5% FBS. The cells were incubated with primary antibodies in blocking solution over night at 4° C. The primary antibodies used in the assays were HA.11 (Covance, MMS-101P) and the antibody detecting the mark specified in the table below. After incubation with primary antibodies, the cells were washed with PBS, incubated with secondary antibodies (Alexa fluor 594 goat anti rabbit IgG, Invitrogen, A11012; Alexa flour 488 donkey anti mouse IgG, Invitrogen, A21202) and Hoechst, (Sigma, 33342) in blocking solution, and washed again with PBS. Finally, PBS was added and high throughput imaging and analysis were performed by an IN Cell Analyzer 1000 (GE Healthcare). The robot software analyzed individual cells and divided these into HA+ (transfected cells) and HA− (non-transfected cells). The IC50 values were based on an average measure of the staining of the mark specified in the table below in the transfected cells.

T1 sequence (Q9UPP1 37-440 limits assumed): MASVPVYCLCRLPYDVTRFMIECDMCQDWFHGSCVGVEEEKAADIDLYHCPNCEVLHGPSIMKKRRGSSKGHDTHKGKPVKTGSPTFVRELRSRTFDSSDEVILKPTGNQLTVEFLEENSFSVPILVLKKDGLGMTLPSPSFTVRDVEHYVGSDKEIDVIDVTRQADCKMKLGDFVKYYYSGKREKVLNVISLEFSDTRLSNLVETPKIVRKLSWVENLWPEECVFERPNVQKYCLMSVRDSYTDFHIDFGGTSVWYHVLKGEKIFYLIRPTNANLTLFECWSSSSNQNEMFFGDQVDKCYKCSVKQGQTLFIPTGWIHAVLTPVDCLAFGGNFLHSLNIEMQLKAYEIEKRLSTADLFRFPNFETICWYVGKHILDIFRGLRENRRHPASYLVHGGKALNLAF

Row | pIC50 (KDM7 (PHF8)) | pIC50 (KDM4C) | Compound
1 | > 6.60 | < 5.60 | CCN(CCC#N)C(=O)CNCc1cc(/C=N/C2CC2)ccn1 [Compound 50, N-(2-cyanoethyl)-2-[({4-[N-cyclopropyl-carboximidoyl]-pyridin-2-yl}methyl)amino]-N-ethylacetamide]
2 | < 5.60 | < 5.60 | CN1CCN(C(=O)CNCc2cc(C=O)ccn2)CC1 [Compound 103, 2-({[2-(4-methylpiperazin-1-yl)-2-oxoethyl]-amino}methyl)-pyridine-4-carbaldehyde]
3 | < 5.60 | < 5.60 | CNCc1ccnc(CNCCCN(C)Cc2ccccc2)c1 [Compound 17, benzyl(methyl){3-[({4-[(methylamino)methyl]-pyridin-2-yl)methyl)-amino]propyl}-amine]
4 | < 5.60 | < 5.60 | CC1CCCCN1CCCNCc1cc(CNC2CC2)ccn1 (stereo not shown) [Compound 11, N-{[2-({[3-(2-methylpiperidin-1-yl)propyl]amino}methyl)-pyridin-4-yl]methyl}-cyclopropanamine]
5 | < 5.60 | < 5.60 | CN1CCN(C(=O)CNCc2cc(/C=N/C3CC3)ccn2)CC1 [Compound 54, 2-[({4-[N-cyclopropyl-carboximidoyl]-pyridin-2-yl}methyl)amino]-1-(4-methylpiperazin-1-yl)ethan-1-one]
6 | 5.60 to 6.60 | < 5.60 | CCN1CCCC1CNC(=O)CNCc1cc(/C=N/C2CC2)ccn1 (stereo not shown) [Compound 51, 2-[({4-[N-cyclopropyl-carboximidoyl]-pyridin-2-yl}methyl)-amino]-N-[(1-ethylpyrrolidin-2-yl)methyl]acetamide]
7 | < 5.60 | < 5.60 | CN(C)CCCCCNCc1cc(C=O)ccn1 [Compound 114, 2-({[5-(dimethylamino)-pentyl]amino}methyl)-pyridine-4-carbaldehyde]
8 | – | < 5.60 | CCN(CC)C(=O)CNCc1cc(C=O)ccn1 [Compound 105, N,N-diethyl-2-{[(4-formylpyridin-2-yl)methyl]amino}-acetamide]
9 | > 6.60 | < 5.60 | CCN(CC)CCCCNC(=O)CNCc1cc(/C=N/C2CC2)ccn1 [Compound 48, 2-[({4-[N-cyclopropyl-carboximidoyl]pyridin-2-yl}methyl)amino]-N-[4-(diethylamino)-butyl]acetamide]
10 | 5.60 to 6.60 | – | c1ccc(CN2CCC[C@H]2CNCc2cc(CNCC3CC3)ccn2)cc1 [Compound 16, {[(2S)-1-benzylpyrrolidin-2-yl]methyl}[(4-{[(cyclopropylmethyl)-amino]methyl}pyridin-2-yl)methyl]amine]
11 | < 5.60 | 5.60 to 6.60 | CN(C)CCCCCNCc1cc(/C=N/C2CC2)ccn1 [Compound 47, N-{[2-({[5-(dimethylamino)-pentyl]amino}-methyl)pyridin-4-yl]methylidene}-cyclopropanamine]
12 | – | < 5.60 | CN(CCCn1cccn1)C(=O)CNCc1cc(/C=N/C2CC2)ccn1 [Compound 52, 2-[({4-[N-cyclopropyl-carboximidoyl]-pyridin-2-yl}methyl)amino]-N-methyl-N-[3-(1H-pyrazol-1-yl)propyl]acetamide]

Second part, the compound before the results:

Row | Compound | pIC50 (KDM7 (PHF8)) | pIC50 (KDM4C)
13 | O=C(CNCc1cc(/C=N/C2CC2)ccn1)N1CCC(Cc2ccccc2)CC1 [Compound 55, 1-(4-benzylpiperidin-1-yl)-2-[({4-[N-cyclopropyl-carboximidoyl]-pyridin-2-yl}methyl)amino]-ethan-1-one] | 5.60 to 6.60 | < 5.60
14 | CN(C)CCCCNCc1cc(C=O)ccn1 [Compound 108, 2-({[4-(dimethylamino)-butyl]amino}methyl)-pyridine-4-carbaldehyde] | < 5.60 | 5.60 to 6.60
15 | CN(CCCNCc1cc(/C=N/C2CC2)ccn1)Cc1ccccc1 [Compound 41, N-({2-[({3-[benzyl(methyl)amino]-propyl}amino)methyl]-pyridin-4-yl}methylidene)-cyclopropanamine] | < 5.60 | 5.60 to 6.60
16 | CN(C)CCNCc1cc(CNC(C#N)C2CC2)ccn1 (stereo not shown) [Compound 21, 2-cyclopropyl-2-({[2-({[2-(dimethylamino)ethyl]-amino}methyl)pyridin-4-yl]methyl}amino)-acetonitrile] | < 5.60 | < 5.60
17 | CN(C)CCNCc1ccnc(CNCC(=O)N(C)C)c1 [Compound 15, 2-({[4-({[2-(dimethylamino)ethyl]-amino}methyl)pyridin-2-yl]methyl}amino)-N,N-dimethylacetamide] | < 5.60 | < 5.60
18 | CCCNCc1cc(CNC2CC2)ccn1 [Compound 12, N-({2-[(propylamino)methyl]-pyridin-4-yl}methyl)-cyclopropanamine] | < 5.60 | < 5.60
19 | O=C(CNCc1cc(/C=N/C2CC2)ccn1)N1CCC[C@@H]1CN1CCCC1 [Compound 49, 2-[({4-[N-cyclopropyl-carboximidoyl]pyridin-2-yl}methyl)amino]-1-[(2R)-2-(pyrrolidin-1-ylmethyl)pyrrolidin-1-yl]ethan-1-one] | 5.60 to 6.60 | 5.60 to 6.60
20 | CCN(CC)CCCCNC(=O)CNCc1cc(C=O)ccn1 [Compound 112, N-[4-(diethylamino)-butyl]-2-{[(4-formylpyridin-2-yl)methyl]amino}-acetamide] | > 6.60 | < 5.60
21 | CC1CC1/N=C/c1ccnc(CNCC(=O)N(C)C)c1 (stereo not shown) [Compound 35, N,N-dimethyl-2-[({4-[N-(2-methylcyclopropyl)-carboximidoyl]pyridin-2-yl}methyl)amino]-acetamide] | > 6.60 | 5.60 to 6.60
22 | CCN1CCCC1CNC(=O)CNCc1cc(C=O)ccn1 (stereo not shown) [Compound 104, N-[(1-ethylpyrrolidin-2-yl)methyl]-2-{[(4-formylpyridin-2-yl)methyl]amino}-acetamide] | 5.60 to 6.60 | < 5.60
23 | CN(C)CCCCNCc1cc(/C=N\C2CC2)ccn1 [Compound 45, N-{[2-({[4-(dimethylamino)butyl]-amino}methyl)-pyridin-4-yl]methylidene}-cyclopropanamine] | < 5.60 | 5.60 to 6.60
24 | CN(CC(=O)N1CCCCC1)Cc1cc(C=O)ccn1 [Compound 120, 2-({methyl[2-oxo-2-(piperidin-1-yl)ethyl]amino}-methyl)pyridine-4-carbaldehyde] | 5.60 to 6.60 | < 5.60
25 | O=Cc1ccnc(CNCC(=O)N2CCC(Cc3ccccc3)CC2)c1 [Compound 106, 2-({[2-(4-benzylpiperidin-1-yl)-2-oxoethyl]-amino}methyl)-pyridine-4-carbaldehyde] | 5.60 to 6.60 | < 5.60
26 | CN(C)CCNCc1cc(C=O)ccn1 [Compound 110, 2-({[2-(dimethylamino)-ethyl]amino}methyl)-pyridine-4-carbaldehyde] | < 5.60 | < 5.60
